Assay results: patent US6620593B1, “Method for safety evaluation of chemical compound using recombinant yeast expressing human cytochrome P450” (Sumitomo Chemical Company, Limited, priority 1993, dated 2003)
Where two headings read alike, the source gives them in different places.

Tests used:
human P450 1A2 = molecular target: T1, human P450 1A2 (Homo sapiens, UniProt P05177); experiment: Metabolism (hydroxylation) of substrates using transformed yeast cells or their microsomal fractions expressing human P450 1A2 and yeast NADPH-P450 reductase
T1 sequence (P05177 1-516): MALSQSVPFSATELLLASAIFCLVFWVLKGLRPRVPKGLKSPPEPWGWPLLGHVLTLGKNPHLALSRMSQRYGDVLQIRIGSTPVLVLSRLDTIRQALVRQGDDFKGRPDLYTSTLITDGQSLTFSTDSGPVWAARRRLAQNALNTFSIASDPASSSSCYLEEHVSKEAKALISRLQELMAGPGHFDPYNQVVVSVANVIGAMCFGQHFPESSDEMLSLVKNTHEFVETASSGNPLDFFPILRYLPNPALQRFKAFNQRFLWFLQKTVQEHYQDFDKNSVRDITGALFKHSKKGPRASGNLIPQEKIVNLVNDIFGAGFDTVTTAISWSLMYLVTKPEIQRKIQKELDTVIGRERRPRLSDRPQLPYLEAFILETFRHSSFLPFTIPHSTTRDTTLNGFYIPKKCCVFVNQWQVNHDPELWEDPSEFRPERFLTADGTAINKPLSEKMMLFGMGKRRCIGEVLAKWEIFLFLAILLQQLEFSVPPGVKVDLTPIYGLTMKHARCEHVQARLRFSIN
Experimental: (§1) Then 2 ml of dichloromethane was added.

human P450 2C9 = human P450 2C9 (Homo sapiens, UniProt P11712); experiment: Metabolism (hydroxylation) of substrates using transformed yeast cells or microsomal fractions expressing human P450 2C9
Experimental: as §1

human P450 2E1 = human P450 2E1 (Homo sapiens, UniProt P05181); experiment: Metabolism (hydroxylation) of substrates using transformed yeast cells or microsomal fractions expressing human P450 2E1
Experimental: as §1

human P450 3A4 = experiment: Metabolism (hydroxylation) of substrates using transformed yeast cells or microsomal fractions expressing human P450 3A4
Experimental: as §1

human P450 2A6 = experiment: Metabolism (hydroxylation) of substrates using transformed yeast cells or microsomal fractions expressing human P450 2A6
Experimental: as §1

human P450 2B6 = molecular target: T2, human P450 2B6 (Homo sapiens, UniProt P20813); experiment: Metabolism (hydroxylation) of substrates using transformed yeast cells or microsomal fractions expressing human P450 2B6
T2 sequence (P20813 1-491): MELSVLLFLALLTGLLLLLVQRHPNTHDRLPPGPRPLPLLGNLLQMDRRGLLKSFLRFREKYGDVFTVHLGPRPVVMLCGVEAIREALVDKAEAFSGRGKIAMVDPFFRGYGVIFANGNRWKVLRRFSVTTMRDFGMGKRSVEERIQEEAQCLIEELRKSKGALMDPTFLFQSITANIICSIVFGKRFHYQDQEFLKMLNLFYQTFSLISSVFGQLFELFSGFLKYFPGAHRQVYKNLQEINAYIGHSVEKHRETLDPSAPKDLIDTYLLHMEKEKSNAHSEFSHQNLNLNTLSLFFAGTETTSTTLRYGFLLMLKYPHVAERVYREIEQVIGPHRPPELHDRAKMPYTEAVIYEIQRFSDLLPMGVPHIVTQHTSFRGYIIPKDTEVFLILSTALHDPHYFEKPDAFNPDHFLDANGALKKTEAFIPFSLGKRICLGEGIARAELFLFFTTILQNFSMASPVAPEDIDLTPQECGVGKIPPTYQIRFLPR
Experimental: as §1

human P450 2C8 = experiment: Metabolism (hydroxylation) of substrates using transformed yeast cells or microsomal fractions expressing human P450 2C8
Experimental: as §1

human P450 2C18 = molecular target: T3, human P450 2C18 (Homo sapiens, UniProt P33260); experiment: Metabolism (hydroxylation) of substrates using transformed yeast cells or microsomal fractions expressing human P450 2C18
T3 sequence (P33260 26-490): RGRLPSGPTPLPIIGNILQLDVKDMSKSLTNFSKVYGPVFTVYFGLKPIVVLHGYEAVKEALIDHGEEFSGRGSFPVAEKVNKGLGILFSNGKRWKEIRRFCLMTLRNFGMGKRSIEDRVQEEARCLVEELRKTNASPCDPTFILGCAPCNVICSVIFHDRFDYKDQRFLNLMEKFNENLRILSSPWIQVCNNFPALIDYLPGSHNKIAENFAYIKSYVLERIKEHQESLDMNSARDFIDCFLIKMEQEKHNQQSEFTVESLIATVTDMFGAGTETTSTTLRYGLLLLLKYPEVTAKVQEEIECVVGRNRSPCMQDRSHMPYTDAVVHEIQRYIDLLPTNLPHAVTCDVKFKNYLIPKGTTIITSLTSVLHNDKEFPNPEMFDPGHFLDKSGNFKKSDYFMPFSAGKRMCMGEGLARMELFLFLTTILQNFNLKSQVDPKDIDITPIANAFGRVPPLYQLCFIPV
Experimental: as §1

human P450 2C19 = human P450 2C19 (Homo sapiens, UniProt P33261); experiment: Metabolism (hydroxylation) of substrates using transformed yeast cells or microsomal fractions expressing human P450 2C19
Experimental: as §1

human P450 2D6 = experiment: Metabolism (hydroxylation) of substrates using transformed yeast cells or microsomal fractions expressing human P450 2D6
Experimental: as §1

[1] = tested on: mixed microsomal fractions of yeasts expressing human cytochrome P450 (3A4, 2C9, 2C8, 2C18, 2C19, 1A2, 2E1, 1A1, 2B6, 2D6); experiment: Metabolism of debrisoquine using mixture of microsomal fractions of transformed yeast cells; type: in vitro ADME; settings: 37° C., 30 min; HPLC
Experimental: The mixing molar ratio of the human cytochrome P450 molecular species were as follows: [table] […] After the mixture was incubated at 37° C. for 30 min, 50 μl of 60% perchlorate was added to the solution to stop the reaction.

human P450 1A1 [2] = molecular target: T4, human P450 1A1 (Homo sapiens, UniProt P04798); settings: microsomes
T4 sequence (P04798 1-512): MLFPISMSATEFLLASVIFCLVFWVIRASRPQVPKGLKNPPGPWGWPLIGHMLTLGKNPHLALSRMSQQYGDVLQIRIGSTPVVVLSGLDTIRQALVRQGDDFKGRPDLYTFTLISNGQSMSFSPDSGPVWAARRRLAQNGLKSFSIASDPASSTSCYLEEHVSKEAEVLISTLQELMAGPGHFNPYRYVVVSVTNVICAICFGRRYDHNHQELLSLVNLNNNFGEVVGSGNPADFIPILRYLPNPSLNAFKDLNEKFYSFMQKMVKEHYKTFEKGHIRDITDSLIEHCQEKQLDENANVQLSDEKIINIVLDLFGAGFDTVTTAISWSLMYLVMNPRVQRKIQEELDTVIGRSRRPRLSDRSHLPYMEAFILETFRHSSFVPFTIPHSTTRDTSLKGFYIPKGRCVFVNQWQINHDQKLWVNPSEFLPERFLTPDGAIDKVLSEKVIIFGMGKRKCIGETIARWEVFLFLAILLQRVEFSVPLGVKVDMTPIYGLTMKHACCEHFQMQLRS

[3] = tested on: other human P450 molecular species
[4] = tested on: mixed system B (eleven human P450 molecular species); experiment: Metabolism of S-mephenytoin using mixture of microsomal fractions of transformed yeast cells (mixing system B); type: in vitro ADME; settings: 37° C., 30 min; HPLC
Experimental: The mixing ratio of the human cytochrome P450 molecular species was the same as that of the mixing system B as described above. […] After the mixture was incubated at 37° C. for 30 min, 250 μl of methanol was added to the solution to stop the reaction.

human P450 1A1 [5] = molecular target: T4, human P450 1A1; experiment: Metabolism (hydroxylation) of substrates using transformed yeast cells or microsomal fractions expressing human P450 1A1; settings: Table 1; recombinant yeast cells or microsomal fractions; conditions per substrate
[6] = tested on: other human P450 molecular species; experiment: Metabolism of substrates using yeast cells or microsomal fractions expressing the other human P450 molecular species (those not given); settings: the remaining of the eleven human P450 species
[7] = Table 1, recombinant yeast cells or microsomal fractions, conditions per substrate

human P450 2E1, sequence (P05181 whole entry): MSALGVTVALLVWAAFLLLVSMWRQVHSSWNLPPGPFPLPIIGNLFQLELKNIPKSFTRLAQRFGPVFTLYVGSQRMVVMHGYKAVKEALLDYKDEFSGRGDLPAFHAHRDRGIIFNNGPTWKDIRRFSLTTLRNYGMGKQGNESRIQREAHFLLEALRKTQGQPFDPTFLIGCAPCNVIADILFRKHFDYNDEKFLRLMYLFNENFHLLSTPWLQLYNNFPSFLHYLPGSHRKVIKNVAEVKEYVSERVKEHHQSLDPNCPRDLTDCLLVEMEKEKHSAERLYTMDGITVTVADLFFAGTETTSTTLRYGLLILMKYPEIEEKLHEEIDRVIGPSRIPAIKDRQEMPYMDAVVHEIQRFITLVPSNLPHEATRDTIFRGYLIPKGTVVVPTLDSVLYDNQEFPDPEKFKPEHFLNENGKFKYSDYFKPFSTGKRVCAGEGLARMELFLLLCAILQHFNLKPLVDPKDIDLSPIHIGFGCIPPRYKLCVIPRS
human P450 2C19, sequence (P33261 whole entry): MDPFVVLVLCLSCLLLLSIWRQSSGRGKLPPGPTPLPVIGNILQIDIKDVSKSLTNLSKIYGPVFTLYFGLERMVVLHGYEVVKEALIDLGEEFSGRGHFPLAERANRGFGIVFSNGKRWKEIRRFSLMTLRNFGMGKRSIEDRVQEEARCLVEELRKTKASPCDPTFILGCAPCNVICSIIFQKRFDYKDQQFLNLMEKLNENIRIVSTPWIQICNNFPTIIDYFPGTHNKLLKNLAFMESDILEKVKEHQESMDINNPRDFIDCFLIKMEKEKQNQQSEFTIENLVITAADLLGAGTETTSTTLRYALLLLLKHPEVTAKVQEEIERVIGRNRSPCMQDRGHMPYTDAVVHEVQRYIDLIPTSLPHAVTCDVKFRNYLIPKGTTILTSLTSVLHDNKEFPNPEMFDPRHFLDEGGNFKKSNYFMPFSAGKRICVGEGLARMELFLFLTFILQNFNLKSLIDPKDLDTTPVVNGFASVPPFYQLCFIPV
human P450 2C9, sequence (P11712 whole entry): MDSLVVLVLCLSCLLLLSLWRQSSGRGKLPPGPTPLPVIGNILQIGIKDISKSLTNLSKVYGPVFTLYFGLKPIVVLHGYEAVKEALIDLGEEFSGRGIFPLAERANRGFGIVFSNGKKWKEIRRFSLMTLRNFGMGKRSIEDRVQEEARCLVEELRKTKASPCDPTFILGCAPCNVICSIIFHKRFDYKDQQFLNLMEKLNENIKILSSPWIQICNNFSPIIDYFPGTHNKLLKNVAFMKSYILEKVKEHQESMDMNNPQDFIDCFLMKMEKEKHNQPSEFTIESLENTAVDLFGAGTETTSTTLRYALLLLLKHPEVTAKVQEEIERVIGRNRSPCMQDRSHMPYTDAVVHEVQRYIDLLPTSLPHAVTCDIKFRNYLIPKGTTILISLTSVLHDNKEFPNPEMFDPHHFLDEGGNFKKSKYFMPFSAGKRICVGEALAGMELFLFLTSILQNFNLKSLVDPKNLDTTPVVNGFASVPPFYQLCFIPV

| SMILES | Hydroxylation activity, human P450 3A4 (human P450 3A4; microsomes) | Hydroxylation activity, human P450 2A6 (human P450 2A6; microsomes) | Hydroxylation activity, human P450 2C8 (human P450 2C8; microsomes) | Hydroxylation activity, human P450 2D6 (human P450 2D6; microsomes) | Hydroxylated metabolite / hydroxylation activity with yeast expressing other human P450 than those named [3] | Hydroxylation activity, human P450 1A2 (human P450 1A2; [7]) | Hydroxylation activity, human P450 2E1 (human P450 2E1; [7]) | Hydroxylation activity, human P450 2B6 (human P450 2B6; [7]) | Hydroxylation activity, human P450 2C18 (human P450 2C18; [7]) | Hydroxylation activity, human P450 1A1 (human P450 1A1 [5]) | also measured |
| --- | --- | --- | --- | --- | --- | --- | --- | --- | --- | --- | --- |
| N=C(N)N1CCc2ccccc2C1 [Debrisoquine] | − | − | − | + + + | no activity |  |  |  |  |  | Hydroxylation activity, human P450 1A2 (human P450 1A2; microsomes): −; Hydroxylation activity, human P450 2C9 (human P450 2C9; microsomes): −; Hydroxylation activity, human P450 2E1 (human P450 2E1; microsomes): −; Hydroxylation activity, human P450 2B6 (human P450 2B6; microsomes): −; Hydroxylation activity, human P450 2C18 (human P450 2C18; microsomes): −; Hydroxylation activity, human P450 2C19 (human P450 2C19; microsomes): −; Metabolites compared with those reported for human liver microsome (Kronbach) [1]: well coincided; Hydroxylation activity, human P450 1A1 (human P450 1A1 [2]): + + |
| CC[C@@]1(c2ccccc2)NC(=O)N(C)C1=O [S-Mephenytoin] | − | − | − | − | no activity | − | − | − | − | − | Hydroxylation activity, human P450 2C9 (human P450 2C9; [7]): −; Metabolites compared with those reported for human liver microsome (Goldstein) [4]: well coincided |
| C[C@]12CC[C@H]3[C@@H](CCC4=CC(=O)CC[C@@]43C)[C@@H]1CC[C@@H]2O [Testosterone] |  |  |  |  |  | − | − | − | − | + | Metabolising (hydroxylation / O-deethylation) activity in words, P450 3A4 (human P450 3A4; 7-ethoxycoumarin 0.5 mM, testosterone 0.05 mM, chlorzoxazone 0.5 mM or 250 μM, acetanilide 5 mM): detected; Hydroxylation activity, human P450 3A4 (human P450 3A4; [7]): + + +; Hydroxylation activity, human P450 2A6 (human P450 2A6; [7]): −; Metabolising (hydroxylation / O-deethylation) activity in words, P450 2C8 (human P450 2C8; 7-ethoxycoumarin 0.5 mM, tolbutamide 1.0 mM, testosterone 0.05 mM, chlorzoxazone, acetanilide 5 mM): detected; Hydroxylation activity, human P450 2C8 (human P450 2C8; [7]): +; Hydroxylation activity, human P450 2C19 (human P450 2C19; [7]): −; Hydroxylation activity, human P450 2D6 (human P450 2D6; [7]): −; Hydroxylated metabolite / hydroxylation activity with yeast expressing other human P450 than those named [6]: not detected |
